Assay results taken from ChEMBL document CHEMBL3137667, “[Drug-induced liver injury; fourteenth updated edition of the bibliographic database of liver injuries and related drugs]” (Gastroenterol Clin Biol, 2004).

Key:
[1] = human
[2] = human; remark: listed apart in the source
[3] = human; remark: listed apart in the source
[4] = human; remark: listed apart in the source
[5] = human, serum
[6] = human; remark: listed apart in the source
[7] = human; remark: listed apart in the source
[8] = human; remark: listed apart in the source
[9] = human; remark: listed apart in the source
[10] = Highest frequency of moderate liver toxicity observed during clinical trials, expressed as a percentage. [column '% BIOL' in source]; conditions: human
[11] = Highest frequency of acute liver toxicity observed during clinical trials, expressed as a percentage. [column '% AIGUE' in source]; conditions: human
[12] = human; remark: listed apart in the source
[13] = Times to onset, minimal and maximal, observed in the indexed observations. [column 'DELAI' in source]; conditions: human
[14] = Presence of at least one case with successful reintroduction. [column 'REINT' in source]; conditions: human
[15] = human, serum; remark: listed apart in the source
[16] = human, serum, 4383 h
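Wherever Hepatotoxicity (association with vascular disease) is given: count of indexed literature references reporting vascular liver injury in humans, e.g. peliosis hepatitis, hepatic veno-occlusive disease or Budd-Chiari syndrome.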
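Wherever Hepatotoxicity (benign tumour) is given: value is a count of indexed literature references citing a benign tumour confirmed by histopathology.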
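Wherever Hepatotoxicity (choleostasis) is given: human cholestatic liver injury, shown by histopathology or by peak ALT or AST elevation over alkaline phosphatase ratio below 2, value counts indexed literature reports.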
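Wherever Hepatotoxicity (chronic liver disease) is given: chronic liver injury confirmed by histopathology or persistently raised serum aminotransferase activity beyond 6 months, value given as the count of indexed literature references.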
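Wherever Hepatotoxicity (cirrhosis) is given: value is a count of indexed literature references reporting cirrhosis confirmed by histopathology.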
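Wherever Hepatotoxicity (cytolytic) is given: human cytolytic liver injury, shown by histopathology or by a ratio above 5 of peak ALT or AST elevation to alkaline phosphatase elevation, value counts indexed references.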
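Wherever Hepatotoxicity (granulomatous hepatitis) is given: value is a count of indexed literature references reporting granulomatous liver disease confirmed by histopathology.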
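Wherever Hepatotoxicity (malignant tumour) is given: malignant tumour confirmed by histopathology, value gives the count of indexed literature references reporting it.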
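Wherever Hepatotoxicity (severe hepatitis) is given: human clinical data: severe hepatitis, meaning potentially life-threatening liver failure or clinically observed cases, the value counts how many indexed literature references report it.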
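Wherever Hepatotoxicity (steatosis) is given: steatosis confirmed by histopathology, value is the count of indexed references.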

Compound | Hepatotoxicity (association with vascular disease) [1] | Hepatotoxicity (granulomatous hepatitis) [2] | Hepatotoxicity (malignant tumour) [3] | Hepatotoxicity (cytolytic) [4] | Hepatotoxicity (moderate) [5] | Hepatotoxicity (steatosis) [6] | Hepatotoxicity (severe hepatitis) [7] | Hepatotoxicity (choleostasis) [8] | Hepatotoxicity (benign tumour) [9] | Hepatotoxicity (moderate) [10] | Hepatotoxicity (acute) [11] | Hepatotoxicity (cirrhosis) [12] | Hepatotoxicity (time to onset) [13] | Hepatotoxicity (successful reintroduction) [14] | Hepatotoxicity (acute) [15] | Hepatotoxicity (chronic liver disease) [16] | further results
COC(=O)C(c1ccccc1)C1CCCCN1 (stereo not given) [METHYLPHENIDATE] | 0 | 0 | 0 | 3 | 1 | 0 | 2 | 0 | 0 | 0% | 0% | 0 | 2 days - 2 months | yes | 4 | 0 | –
COc1ccc2c3c1O[C@H]1[C@@H](O)C=C[C@H]4[C@@H](C2)N(C)CC[C@@]341 [CODEINE] | 0 | – | 0 | – | 2 | 0 | – | – | 0 | – | – | 0 | < 1 hour - 1.5 hours | yes | 3 | 0 | Hepatotoxicity (granulomatous hepatitis) ([2]; Liver): 1; Hepatotoxicity (cytolytic) ([4]; Liver): 2; Hepatotoxicity (severe hepatitis) ([7]; Liver): 0; Hepatotoxicity (choleostasis) ([8]; Liver): 0; Hepatotoxicity (moderate) ([10]; Liver): 0%; Hepatotoxicity (acute) ([11]; Liver): 0%
CN(C)CC[C@@H](c1ccc(Cl)cc1)c1ccccn1 [DEXCHLORPHENIRAMINE] | 0 | 0 | 0 | 1 | 0 | 0 | – | 0 | 0 | – | – | 0 | 9 days | yes | 1 | 0 | Hepatotoxicity (severe hepatitis) ([7]; Liver): 0; Hepatotoxicity (moderate) ([10]; Liver): 0%; Hepatotoxicity (acute) ([11]; Liver): 0%
O=C1c2ccccc2C(=O)C1c1ccc(F)cc1 [FLUINDIONE] | 0 | 0 | 0 | 5 | 0 | 0 | 0 | 1 | 0 | 0% | 0% | 0 | 1 week - 3 months | yes | 7 | 0 | –
ENOXAPARIN | 0 | 0 | 0 | 0 | 8 | 0 | 0 | 0 | 0 | 36% | 0% | 0 | 12 hours - 2 weeks | yes | 0 | 0 | –
PEGVISOMANT | 0 | 0 | 0 | 2 | 0 | 0 | 0 | 0 | 0 | 0% | 1.3% | 0 | 4 weeks - 8 weeks | yes | 2 | 0 | –
COc1c2occc2c(OC)c2c(=O)cc(C)oc12 [KHELLIN] | 0 | 0 | 0 | 1 | 1 | 0 | 0 | 0 | 0 | 0% | 0% | 0 | 5 weeks | yes | 1 | 0 | –
CC[C@H](C)[C@H]1NC(=O)[C@@H](NC(=O)[C@@H](CC(C)C)N(C)C(=O)[C@@H]2CCCN2C(=O)C(C)O)[C@@H](C)OC(=O)[C@H](Cc2ccc(OC)cc2)N(C)C(=O)[C@@H]2CCCN2C(=O)[C@H](CC(C)C)NC(=O)[C@@H](C)C(=O)[C@H](C(C)C)OC(=O)C[C@@H]1O (stereo not given in full) [DIDEMNIN B] | 0 | 0 | 0 | 0 | 3 | 0 | 0 | 1 | 0 | 32% | 5.3% | 0 | 1 week | yes | 2 | 0 | –
[Li] [LITHIUM] | 0 | 0 | 0 | 0 | 4 | 0 | 0 | 0 | 0 | 0% | 0% | 0 | 2 days - 2 months | yes | 0 | 1 | –
C=C(CC)C(=O)c1ccc(OCC(=O)O)c(Cl)c1Cl [ETHACRYNIC ACID] | 0 | 0 | 0 | 2 | 0 | 0 | 2 | 0 | 0 | 0% | 0% | 0 | 2 weeks - 4 weeks | yes | 2 | 0 | –
